Laboratory results: patent US4693884A, “Technetium-99m triphosphonates and tetraphosphonates for the scintigraphic visualization of res-containing organs and lymph vessels, and a process for their preparation” (Hoechst Aktiengesellschaft, priority 1982, dated 1987)
One block for each compound: values may come before it.

Legend:
[1] = Accumulation of phosphoric acid derivatives investigated as technetium-99m diagnostic agents (bone, liver, RES); conditions: in vivo
Source text: It is possible to use phosphoric acid derivatives, particularly organic phosphonic acid derivatives, for bone scintigraphy. Many compounds have been investigated in the search for derivatives suitable as a technetium-99m diagnostic agent for bone.

[2] = Lymphatic scintigraphy on dogs; type: in vivo, beagle dogs
Experimental: In order to check the utilizability of the new diagnostic agent for lymphatic scintigraphy, lymphatic scintigraphy using ^99m Tc TPB was carried out on dogs.
A TPB labeling unit which contained CaCl2 as described in Example 4 was prepared with 5 ml of ^99m Tc-pertechnetate solution which contained 5 mCi of ^99m Tc per ml. Adult beagle dogs each received 0.3-0.4 ml of this solution injected subcutaneously into the hind paw. The change in the distribution of radioactivity with time over the hind legs was then followed using a gamma camera for 4 hours. The site of injection was shielded with lead in each case.

[3] = Comparison of 99mTc TPB, 99mTc PTP and 99mTc phytate after intravenous injection to dogs; type: in vivo; conditions: intravenous, dogs; for decrease in activity via the liver after accumulation in the liver is complete: compared with phytate
[4] = Example 2: organ distribution in rats, frozen solution labeled with 99mTc; type: in vivo, Sprague-Dawley rats; conditions: femoral vein
Experimental: 400 mg of 2,4,4-triphosphonobutyric acid are dissolved in about 30 ml of double-distilled water. The pH of the solution, which is about 1.7 after this, is then adjusted to pH 6 using 1N NaOH. 8 mg of SnCl2.2H2 O in 1 ml of 0.1N HCl are added to this solution, and the pH is again adjusted to 6 using 0.1N NaOH, and then the solution is made up to 40 ml. All the operations are carried out under a protective atmosphere of nitrogen gas. The solution thus obtained is frozen in individual 1 ml portions.
After 3 days, the solution is thawed and reacted with 1 ml of a ^99m Tc-pertechnetate solution which contains 4.44 MBq (120 μCi) of ^99m Tc. After 30 minutes, Sprague-Dawley rats weighing 200 g each receive 0.5 ml of this solution injected into the femoral vein. 3 animals are sacrificed with ether at 30 minutes and at 2 hours after the injection, and the organ distribution is determined.

[5] = Organ distribution of 99mTc-labeled substances in rats 30 minutes after injection as a function of the amount of substance administered; type: in vivo; conditions: for Blood/ml / Kidneys / Liver / Lung / Remainder of body / Spleen / Thyroid / tissue uptake at 0.5 h: 30 min after injection, n = 3; for accumulation in the liver and spleen compared with phytate / accumulation of activity in the kidneys, blood, femur and remainder of the body compared with phytate: all amounts of substance investigated; for suitability as diagnostic agent for visualization of RES-containing organs compared with 99mTc phytate: deduction from the animal experiments; for tissue uptake at 0.5 h: rat, in vivo, iv, 0.05 mg, read-out: Femur/g
Experimental: Assuming that 2-20 mg of TPB, ETP, PTP or phytate are administered to humans, and assuming that the weight of human is 80 kg, this corresponds to an amount administered of 25-250 μg/kg of body weight. Calculating on the basis of the body weight of rats weighing 200 g, then administration of 5-50 μg of TPB, ETP, PTP or phytate per rat exactly reflects the relationships.
Organ distribution of ^99m Tc TPB, ^99m TC ETP and ^99m Tc
phytate in rats (n = 3) 30
minutes after injection as a function of the amount of substance
(all data as a percentage of the amount of activity administered)

[6] = Example 3: distribution of activity over the organs in rats, lyophilizate; type: in vivo, Sprague-Dawley rats; conditions: 30 min
Experimental: 8 g of sodium 2,4,4-triphosphonobutyrate are dissolved in about 60 ml of double-distilled water, the pH of the solution then being 8.5. After the pH had been adjusted to 7 with 1N HCl, 120 mg of SnCl2.2H2 O in 3 ml of 1N HCl were added, the pH was adjusted to 6 using 0.1N NaOH, and the solution was made up to 160 ml with double-distilled water. All operations should be carried out under a protective atmosphere of nitrogen gas. The solution thus obtained is freeze-dried in individual 1 ml portions in snap-closure bottles which have previously been frozen with liquid nitrogen. The contents are covered with nitrogen and the bottles are closed.
After storage for some weeks, the lyophilizate is dissolved in 10 ml of physiologic saline containing 2 mCi of technetium-99m-pertechnetate. After 30 minutes, 3 Sprague-Dawley rats (about 200 g) each receive 0.1 ml of this solution injected into the femoral vein, and 30 minutes later the animals are sacrificed with ether and the distribution of activity over the organs is determined. The following mean figures (as percentage of the dose administered) result: […]

[7] = Example 5: organ distribution of 99mTc ETP in rats; type: in vivo, Sprague-Dawley rats; conditions: 30 min, intravenous
Experimental: 1.40 g of ethane-1,1,2,2-tetraphosphonic acid are dissolved in about 20 ml of double-distilled water and the pH of the solution is adjusted to 7.0 using 1N sodium hydroxide solution. The total volume of this solution is adjusted to 100 ml with double-distilled water and, while excluding oxygen, 11 mg of SnCl2.2H2 O in 5 ml of aqueous solution are added. The clear solution thus obtained is sterilized by filtration and filled, in 0.2 ml portions, into snap-closure bottles which have previously been cooled with liquid nitrogen, and is then freeze-dried. The contents are covered with nitrogen and the bottles are closed. A bottle then contains about 3.3 mg of Na salt of ETP (corresponding to about 2.7 mg of ETP) and about 11 μg of tin(II).
The substance is labeled with ^99m Tc by the addition of 5 ml of physiologic saline which contains 1.5 mCi of technetium-99m-pertechnetate.After a reaction time of 15 minutes, three Sprague-Dawley rats each received 0.1 ml of this solution by intravenous injection. 30 minutes later, the animals were sacrificed and the organ distribution of ^99m Tc ETP was measured. The following figures (as percentage of the dose administered) were found from this: […]

[8] = second amount column (printed 50 μg)
[9] = third amount column (printed 50 μg)

accumulation in bone [1]: virtually not at all
SMILES: O=P(O)(O)C(CCC(P(=O)(O)O)P(=O)(O)O)P(=O)(O)O [BTP, butane-1,1,4,4-tetraphosphonic acid]
accumulation in the liver [1]: very preferentially accumulated in the liver

SMILES: O=C(O)C(CC(P(=O)(O)O)P(=O)(O)O)P(=O)(O)O (stereo not drawn) [TPB, 2,4,4-triphosphonobutyric acid]
suitability for lymphatic scintigraphy [2]: also suitable for lymphatic scintigraphy | accumulation in bone [1]: virtually not at all | accumulation in the liver [1]: very preferentially accumulated in the liver | excretion of activity with the urine ([3]; 30 min after injection): 0.6 % of the test dose | excretion of activity with the urine, compared with phytate [3]: markedly less | decrease in activity via the liver after accumulation in the liver is complete [3]: slower | Blood/ml ([4]; 30 min p.i.): 0.03 percentage of the dose adminis | Kidneys ([4]; 30 min p.i.): 1.74 percentage of the dose adminis | Liver ([4]; 30 min p.i.): 86.5 percentage of the dose adminis | Remainder of body ([4]; 30 min p.i.): 9.08 percentage of the dose adminis | Spleen ([4]; 30 min p.i.): 2.40 percentage of the dose adminis | Thyroid ([4]; 30 min p.i.): 0.05 percentage of the dose adminis | urine ([4]; 30 min p.i.): 1.75 percentage of the dose adminis | Blood/ml ([4]; 2 hours p.i.): 0.01 percentage of the dose adminis | Kidneys ([4]; 2 hours p.i.): 1.12 percentage of the dose adminis | Liver ([4]; 2 hours p.i.): 88.3 percentage of the dose adminis | Remainder of body ([4]; 2 hours p.i.): 8.27 percentage of the dose adminis | Spleen ([4]; 2 hours p.i.): 3.06 percentage of the dose adminis | Thyroid ([4]; 2 hours p.i.): 0.04 percentage of the dose adminis | urine ([4]; 2 hours p.i.): 2.02 percentage of the dose adminis | tissue uptake at 0.5 h ([4]; rat, bone, iv, 30 min p.i.): 0.17 %ID/g | tissue uptake at 2 h ([4]; rat, bone, iv, 2 hours p.i.): 0.22 %ID/g | Blood/ml ([5]; (50 μg)): 0.05 percentage of the amount of ac | Kidneys ([5]; (50 μg)): 0.12 percentage of the amount of activity administered | Liver ([5]; (50 μg)): 95.8 percentage of the amount of activity administered | Lung ([5]; (50 μg)): 0.19 percentage of the amount of activity administered | Remainder of body ([5]; (50 μg)): 5.6 percentage of the amount of activity administered | Spleen ([5]; (50 μg)): 1.30 percentage of the amount of activity administered | Thyroid ([5]; (50 μg)): 0.03 percentage of the amount of activity administered | Blood/ml [5, 8]: 0.16 percentage of the amount of ac | Kidneys [5, 8]: 0.37 percentage of the amount of activity administered | Liver [5, 8]: 92.7 percentage of the amount of activity administered | Lung [5, 8]: 0.30 percentage of the amount of activity administered | Remainder of body [5, 8]: 11.5 percentage of the amount of activity administered | Spleen [5, 8]: 0.88 percentage of the amount of activity administered | Thyroid [5, 8]: 0.03 percentage of the amount of activity administered | Blood/ml [5, 9]: 0.19 percentage of the amount of ac | Kidneys [5, 9]: 0.39 percentage of the amount of activity administered | Liver [5, 9]: 88.7 percentage of the amount of activity administered | Lung [5, 9]: 0.29 percentage of the amount of activity administered | Remainder of body [5, 9]: 12.6 percentage of the amount of activity administered | Spleen [5, 9]: 0.99 percentage of the amount of activity administered | Thyroid [5, 9]: 0.03 percentage of the amount of activity administered | accumulation in the liver and spleen compared with phytate [5]: markedly higher than that of phytate | accumulation of activity in the kidneys, blood, femur and remainder of the body compared with phytate [5]: clearly lower than with phytate | suitability as diagnostic agent for visualization of RES-containing organs compared with 99mTc phytate [5]: unambiguously superior | tissue uptake at 0.5 h [5, 8]: 0.29 %ID/g | tissue uptake at 0.5 h [5, 9]: 0.3 %ID/g

SMILES: O=C([O-])C(CC(P(=O)(O)O)P(=O)(O)O)P(=O)(O)O.[Na+] (stereo not drawn) [sodium 2,4,4-triphosphonobutyrate]
Blood/ml ([6]; femoral vein, mean of 3 rats): 0.03 percentage of the dose adminis | Kidneys ([6]; femoral vein, mean of 3 rats): 0.08 percentage of the dose adminis | Liver ([6]; femoral vein, mean of 3 rats): 96.2 percentage of the dose adminis | Remainder of body ([6]; femoral vein, mean of 3 rats): 4.9 percentage of the dose adminis | Spleen ([6]; femoral vein, mean of 3 rats): 1.9 percentage of the dose adminis | Thyroid ([6]; femoral vein, mean of 3 rats): 0.03 percentage of the dose adminis | lungs ([6]; femoral vein, mean of 3 rats): 0.24 percentage of the dose adminis | recovered activity total ([6]; related to the dose administered): 103.4%

accumulation in bone [1]: virtually not at all | decrease in activity via the liver after accumulation in the liver is complete [3]: slower | Blood/ml ([5]; (50 μg)): 0.02 percentage of the amount of ac | Blood/ml [5, 8]: 0.04 percentage of the amount of ac | Blood/ml [5, 9]: 0.04 percentage of the amount of ac | accumulation in the liver and spleen compared with phytate [5]: markedly higher than that of phytate | accumulation of activity in the kidneys, blood, femur and remainder of the body compared with phytate [5]: clearly lower than with phytate | total recovered activity [7]: 104.5% | Blood/ml ([7]; three rats): 0.02 percentage of the dose adminis | Kidneys ([7]; three rats): 0.12 percentage of the dose adminis | Liver ([7]; three rats): 96.2 percentage of the dose adminis | Remainder of body ([7]; three rats): 7.8 percentage of the dose adminis | Spleen ([7]; three rats): 2.1 percentage of the dose adminis | Thyroid ([7]; three rats): 0.03 percentage of the dose adminis | lungs ([7]; three rats): 0.18 percentage of the dose adminis
SMILES: O=P(O)(O)C(C(P(=O)(O)O)P(=O)(O)O)P(=O)(O)O [ETP, ethane-1,1,2,2-tetraphosphonic acid]
accumulation in the liver [1]: very preferentially accumulated in the liver | Kidneys ([5]; (50 μg)): 0.12 percentage of the amount of activity administered | Liver ([5]; (50 μg)): 96.2 percentage of the amount of activity administered | Lung ([5]; (50 μg)): 0.18 percentage of the amount of activity administered | Remainder of body ([5]; (50 μg)): 7.8 percentage of the amount of activity administered | Spleen ([5]; (50 μg)): 2.10 percentage of the amount of activity administered | Thyroid ([5]; (50 μg)): 0.03 percentage of the amount of activity administered | Kidneys [5, 8]: 0.16 percentage of the amount of activity administered | Liver [5, 8]: 95.2 percentage of the amount of activity administered | Lung [5, 8]: 0.21 percentage of the amount of activity administered | Remainder of body [5, 8]: 11.2 percentage of the amount of activity administered | Spleen [5, 8]: 2.13 percentage of the amount of activity administered | Thyroid [5, 8]: 0.03 percentage of the amount of activity administered | Kidneys [5, 9]: 0.26 percentage of the amount of activity administered | Liver [5, 9]: 93.6 percentage of the amount of activity administered | Lung [5, 9]: 0.32 percentage of the amount of activity administered | Remainder of body [5, 9]: 10.4 percentage of the amount of activity administered | Spleen [5, 9]: 1.30 percentage of the amount of activity administered | Thyroid [5, 9]: 0.04 percentage of the amount of activity administered | suitability as diagnostic agent for visualization of RES-containing organs compared with 99mTc phytate [5]: unambiguously superior
